Data as given in US7241878B1, “Modified cellulose synthase gene from Arabidopsis thaliana confers herbicide resistance to plants” (U.S. Department of Energy, priority 1999, dated 2007).

Experiments:
[1] = tested on: cellulose synthesis in algae and plants; settings: cited from earlier work
wild type Arabidopsis = settings: 12 μM; cited from earlier work
ixr1-1 mutant = settings: 12 μM; cited from earlier work
[2] = tested on: ixr1-1 and ixr1-2 mutant plants; experiment: growth analysis under isoxaben spray, ixr1 mutant plants; settings: 2.0 μM isoxaben
Method: (§1) Seeds from wild-type Col and Ler, ixr1-1 and ixr1-2 homozygous mutants and F1- and F2-seeds were germinated again and treated as described using 2.0 μM isoxaben in the solution.

[3] = tested on: wild-type Col and Ler plants; experiment: growth analysis under isoxaben spray, wild-type plants; settings: 2.0 μM isoxaben in the spray solution
Method: as §1

[4] = tested on: seed germination, mitosis, respiration, photosynthesis, and lipid and RNA synthesis; settings: cited from earlier work
Brassica napus = settings: in vivo; read-out: I50 for Brassica napus; cited from earlier work
cellulose biosynthesis = settings: compared with dichlobenil, another cellulose synthesis inhibitor; cited from earlier work
[5] = tested on: ixr1-1-, ixr1-2- and wild-type Arabidopsis plants; experiment: isoxaben-resistance pilot screen, spraying of soil-grown plants; type: in vivo, Arabidopsis thaliana; settings: sprayed every 3 days from seedling stage, 1 ml/6 cm^2 soil surface, 0.025% DMSO
Method: Seeds from homozygous isoxaben-resistant mutants ixr1-1 (DH47) and ixr1-2 (DH48) (Heim et al., 1989) were obtained from the Arabidopsis Biological Resource Center, Columbus, Ohio (ABRC stock numbers CS 6201 and CS 6202). Seeds were vernalized for five days in 0.15% water agar at 6° C. prior to planting in a commercial peat-vermiculite-perlite mix (ProMix HP with a 1 cm top-layer of ProMix PGX, Premier Horticulture Inc., Red Hill, Pa., Canada). Plants were grown in the greenhouses of Carnegie Institution of Washington, Department of Plant Biology, Stanford, Calif. between July 1998 and June 1999. Seeds from self-pollinated ixr1-1 and ixr1-2 mutants were collected separately and used for further experiments.
Isoxaben (95%, N-3-[1-ethyl-1-methyl-propyl]-5-isoxazolyl-2, 6-dimethoxybenzamide) was graciously supplied by DowElanco (Indianapolis, Ind.) and was made up as a concentrated dimethylsulfoxide (DMSO) stock solution and used at concentrations ranging from 0.03 to 10.0 μM. The final concentration of DMSO was always 0.025%. Control cultures without isoxaben contained the same amount of DMSO as the isoxaben-treated cultures; no effect of DMSO was noted.

N#Cc1c(Cl)cccc1Cl [DCB, 2,6-dichlorobenzonitrile]
inhibition of cellulose synthesis [1]: effective and specific inhibitor

CC(C)(C)NC(=O)OC1SCN(c2cccc(C(F)(F)F)c2)C1=O (stereo not shown) [TZ, 5-tert-butyl-carbamoyloxy-3-(3-trifluromethyl) phenyl-4-thiazolidnone]
effect on wild type Arabidopsis (wild type Arabidopsis): kills
reduction of growth of the ixr1-1 mutant (ixr1-1 mutant): 50%

CCC(C)(CC)c1cc(NC(=O)c2c(OC)cccc2OC)on1 [isoxaben, N-3-[1-ethyl-1-methyl-propyl]-5-isoxazolyl-2,6-dimethoxybenzamide]
growth of heterozygous mutant F1-plants ([2]; heterozygous F1, compared to the homozygous mutants): clearly reduced growth
growth of homozygous mutants ([2]; homozygous ixr1-1 and ixr1-2 (ixr1-1 grew better than ixr1-2)): grew well
growth of wild-type plants [3]: didn't grow at all
effect on other cellular processes [4]: unaffected
IC50 (Brassica napus): 20 nM
acts at lower concentrations than dichlobenil (factor) (cellulose biosynthesis): < 40 ×
concentration in the application solution high enough to discriminate resistant and susceptible plants [5]: 1.0 to 3.0 µM
